Results taken from patent US20240083872A1, “CYCLIC AMINE DERIVATIVES HAVING SEROTONIN RECEPTOR BINDING ACTIVITY” (Shionogi & Co., Ltd., priority 2020, published 2024).
Like-named read-outs stand apart in the source and are kept apart here.

What was measured:
[1] = target: human recombinant 5-HT2A receptor (Homo sapiens (Human), UniProt P28223); assay: 5-HT2A receptor binding inhibition test ([3H]-Ketanserin); conditions: Jump-In HEK cell membrane
Method: Test Example 1: 5-HT2A Receptor Binding Inhibition Test
(§1) (Each Experimental Condition)
Cell membrane: Jump-In HEK cell membrane (expressing human recombinant 5-HT2A receptor)
(§2) Assay buffer: Tris-HCl 50 mmol/L (pH 7.4) containing NaCl 120 mmol/L, MgCl2.6H2O 1 mmol/L, KCl 5 mmol/L, 0.1% BSA, and CaCl2 2 mmol/L
Radioactive ligand: [^3H]-Ketanserin around Kd value calculated by the following method
(§3) Non-specific ligand: Serotonin HCl
(§4) The Kd value was calculated when the lot of cell membrane was changed. In advance, 0.5 μL of a 1 mmol/L compound for non-specific binding calculation dissolved in DMSO or DMSO was dispensed into a microplate, and the cell membrane was diluted with an Assay buffer. The radioactive ligand solution was serially diluted and the count was confirmed with a liquid scintillator. Assay buffer containing diluted cell membrane was dispensed into a microplate at 50 μL/well. Then, the radioactive ligand solution was dispensed into a microplate at 50 μL/well, and the plate was sealed. It was allowed to stand at room temperature (25° C.) for 1.5 hours. During this period, 50 mmol/L Tris-HCl (pH 7.4) was dispensed into a GF/B UniFilter plate at 50 μL/well and allowed to stand at 4° C. for 1 hour or longer. After that, filtration was performed with Cell harvester (PerkinElmer). The radioactive ligand solution was dispensed into an empty well of the GF/B UniFilter plate at 10 μL/well. After the GF/B UniFilter plate was dried at room temperature, MicroScinti 20 was dispensed into the GF/B UniFilter plate at 50 μL/well, and the plate was sealed. The GF/B UniFilter plate was allowed to stand overnight at room temperature. The radioactivity of [^3H]-Ketanserin bound to the 5-HT2A receptor was measured using Microbeta2 (PerkinElmer) at a measurement time of 1 min/well. The Saturation curve was drawn from the measured value, and the Kd value was calculated from the slope of the Scatchard Plot.
(§5) (Binding Test of the Compound According to the Present Invention)
(§6) In advance, 0.5 μL of the compound solution dissolved in DMSO was dispensed into a microplate, and the cell membrane and the hot ligand were diluted with Assay buffer, respectively. Then, the Assay buffer containing the diluted cell membrane was dispensed into a microplate at 50 μL/well. Then, the radioactive ligand solution was dispensed into a microplate at 50 μL/well, and the plate was sealed. Then, it was allowed to stand at room temperature (25° C.) for 1.5 hours. During this period, 50 mmol/L Tris-HCl (pH 7.4) was dispensed into a GF/B UniFilter plate at 50 μL/well and allowed to stand at 4° C. for 1 hour or longer. After that, filtration was performed with Cell harvester (PerkinElmer). After the GF/B UniFilter plate was dried at room temperature, MicroScinti 20 was dispensed into the GF/B UniFilter plate at 50 μL/well, and the plate was sealed. The GF/B UniFilter plate was allowed to stand overnight at room temperature. The radioactivity of [^3H]-Ketanserin bound to the 5-HT2A receptor was measured using Microbeta2 (PerkinElmer) at a measurement time of 1 min/well. The non-specific binding was calculated from the radioactivity of [^3H]-Ketanserin in the presence of […] Serotonin HCl with the unlabeled ligand, and the total binding was calculated from the radioactivity of [^3H]-Ketanserin in the absence of the compound according to the present invention (Vehicle). Finally, the Ki value was calculated from the dose-response curve.
(§7) (The binding activity of the compound according to the present invention was calculated from the following binding inhibition rate (%).)
(§8) Inhibition rate (%)=[1−(c−a)/(b−a)]×100 • a; mean cpm of non-specific binding • b; mean cpm of total binding • c; cpm in the presence of the test compound

[2] = target: human recombinant 5-HT2C receptor (Homo sapiens (Human), UniProt P28335); assay: 5-HT2C receptor binding inhibition test ([3H]-Mesulergine)
Method: as §1
Cell membrane: Jump-In HEK cell membrane (expressing human recombinant 5-HT2C receptor)
as §2
Radioactive ligand: [^3H]-Mesulergine around Kd value calculated by the following method
as §3
as §4, with “[…]” for “4°”, “The radioactivity of [^3H]-Ketanserin bound to the 5-HT2A receptor was measured using Microbeta2 (PerkinElmer) at a measurement time of 1 min/well.” left out
as §5
as §6, with “37° C.” for “room temperature (25° C.)”, “2” for “1.5”, “The radioactivity of [^3H]-Ketanserin bound to the 5-HT2A receptor was measured using Microbeta2 (PerkinElmer) at a measurement time of 1 min/well.” left out, “[^3H]-Mesulergine” for “[^3H]-Ketanserin”
as §7, §8

[3] = Jump-In HEK cell membrane, [3H]-Mesulergine, read-out: h-5-HT2C Ki
[4] = read-out: human serotonin 5-HT2A receptor binding activity, Ki value
[5] = Jump-In HEK cell membrane, [3H]-Mesulergine, read-out: human serotonin 5-HT2C receptor binding inhibitory activity, Ki value

human recombinant 5-HT2C receptor, sequence (P28335 33-458): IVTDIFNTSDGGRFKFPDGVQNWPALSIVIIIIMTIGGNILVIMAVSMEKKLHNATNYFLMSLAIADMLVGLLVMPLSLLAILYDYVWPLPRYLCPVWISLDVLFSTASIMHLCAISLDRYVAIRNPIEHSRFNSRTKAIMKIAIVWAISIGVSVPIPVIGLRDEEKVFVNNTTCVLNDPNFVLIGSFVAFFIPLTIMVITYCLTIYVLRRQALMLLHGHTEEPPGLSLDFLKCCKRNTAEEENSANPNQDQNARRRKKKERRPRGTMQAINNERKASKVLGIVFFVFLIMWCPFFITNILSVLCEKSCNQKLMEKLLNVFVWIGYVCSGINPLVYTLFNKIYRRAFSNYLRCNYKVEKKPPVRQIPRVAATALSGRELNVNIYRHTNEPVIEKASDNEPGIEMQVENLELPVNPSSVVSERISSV
human recombinant 5-HT2A receptor, sequence (P28223 whole entry): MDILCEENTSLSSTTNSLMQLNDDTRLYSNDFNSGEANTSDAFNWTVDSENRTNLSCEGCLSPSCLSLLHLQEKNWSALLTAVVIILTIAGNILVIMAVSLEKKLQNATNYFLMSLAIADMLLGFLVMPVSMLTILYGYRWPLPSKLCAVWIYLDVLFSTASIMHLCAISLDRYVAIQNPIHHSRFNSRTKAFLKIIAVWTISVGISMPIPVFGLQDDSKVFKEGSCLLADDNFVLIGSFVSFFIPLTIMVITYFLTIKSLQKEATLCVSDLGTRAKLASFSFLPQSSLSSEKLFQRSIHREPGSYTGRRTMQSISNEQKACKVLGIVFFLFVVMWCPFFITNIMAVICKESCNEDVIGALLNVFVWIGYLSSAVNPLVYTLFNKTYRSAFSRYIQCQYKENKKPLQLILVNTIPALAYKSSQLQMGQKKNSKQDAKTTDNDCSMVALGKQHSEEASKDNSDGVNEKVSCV

Compound | Ki ([1]; read-out: h-5-HT2A Ki) [nM] | Ki [2, 3] [nM] | Ki [1, 4] [nM] | Ki [2, 5] [nM] | Ki [2] [nM]
CC(C)COc1ccc(CN(Cc2nccs2)C(=O)NC2CCN(C)CC2)cc1 [Compound I-025] | 10 to 100 | 10 to 100 |  |  | 
CN1CCC(NC(=O)N(Cc2ccc3c(c2)OCO3)Cc2ccn(C)n2)CC1 [Compound I-026] | 10 to 100 | 100 to 5000 |  |  | 
CC(C)COc1ccc(CN(Cc2ccn(C)n2)C(=O)N[C@@H]2CCNCC2(F)F)cc1 [Compound I-027] | 100 to 5000 | 100 to 5000 |  |  | 
CN1CCC(NC(=O)N(Cc2ccc(C3CC3)cc2)Cc2ccn(C)n2)CC1 [Compound I-029] |  |  | 4.33 | 20.5 | 
Cc1ccc(CN(Cc2ccc(OCC(C)C)cc2)C(=O)NC2CCN(C)CC2)nc1 [Compound I-031] |  |  | 0.709 | 1.89 | 
CC(C)COc1ccc(CN(Cc2ccc(C#N)cn2)C(=O)NC2CCN(C)CC2)cc1 [Compound I-032] | 10 to 100 | 100 to 5000 |  |  | 
CC(C)COc1ccc(CN(Cc2cc3ccccc3o2)C(=O)NC2CCN(C)CC2)cc1 [Compound I-033] |  |  | 4.01 | 28.9 | 
CC(C)COc1ccc(CN(Cc2cccs2)C(=O)NC2CCN(C)CC2)cc1 [Compound I-034] | < 10 | 10 to 100 |  |  | 
CC(C)COc1ccc(CN(Cc2cocn2)C(=O)NC2CCN(C)CC2)cc1 [Compound I-035] | < 10 | 10 to 100 |  |  | 
CC(C)COc1ccc(CN(Cc2ccn(C)n2)C(=O)CN2CCN(C)CC2)cc1 [Compound I-036] | 10 to 100 | 100 to 5000 |  |  | 
CC(C)COc1ccc(CN(Cc2ccn(C)n2)C(=O)N[C@H]2CCN(C)CC23CC3)cc1 [Compound I-037] |  |  | 4.7 | 2.11 | 
Cc1ccc(CN(Cc2ccn(C)n2)C(=O)NC2CCN(C)CC2)cc1 [Compound I-038] | 10 to 100 | 10 to 100 |  |  | 
Cc1cc(CN(Cc2ccc(OCC(C)C)cc2)C(=O)NC2CCN(C)CC2)no1 [Compound I-039] | 10 to 100 | 10 to 100 |  |  | 
CC(C)COc1ccc(CN(Cc2ccn(C)c2)C(=O)NC2CCN(C)CC2)cc1 [Compound I-040] | < 10 | 10 to 100 |  |  | 
CC(C)COc1ccc(CN(Cc2nn(C)cc2Cl)C(=O)NC2CCN(C)CC2)cc1 [Compound I-041] | 10 to 100 | 10 to 100 |  |  | 
COc1ccc(CN(Cc2ccc(F)cn2)C(=O)NC2CCN(C)CC2)cc1 [Compound I-042] | < 10 | 10 to 100 |  |  | 
CN1CCC(NC(=O)N(Cc2ccc(OC(F)(F)F)cc2)Cc2ccn(C)n2)CC1 [Compound I-046] |  |  | 3.09 | 14.5 | 
CC(C)Oc1ccc(CN(Cc2ccn(C)n2)C(=O)NC2CCN(C)CC2)cc1 [Compound I-047] | 10 to 100 | 10 to 100 |  |  | 
CC(C)COc1ccc(CN(Cc2ccn(C)n2)C(=O)N[C@H]2CCNC[C@H]2F)cc1 [Compound I-048] | < 10 | < 10 |  |  | 

Compound | Ki ([1]; read-out: h-5-HT2A Ki) [nM] | Ki [2, 3] [nM] | Ki [1, 4] [nM] | Ki [2, 5] [nM] | Ki [2] [nM]
CC(C)COc1ccc(CN(Cc2ccn(C)n2)C(=O)N[C@H]2CCN(C)C[C@H]2F)cc1 [Compound I-049] | < 10 | < 10 |  |  | 
CC(C)COc1ccc(CN(Cc2ccc(F)cn2)C(=O)N[C@H]2CCN(C)C[C@H]2F)cc1 [Compound I-050] | < 10 | < 10 |  |  | 
COc1ccc(CN(Cc2ccn(C)n2)C(=O)NC2CCN(C)CC2)nc1 [Compound I-051] | 100 to 5000 | 100 to 5000 |  |  | 
CC(C)COc1ccc(CN(Cc2ccn(C)n2)C(=O)N[C@H]2[C@@H]3CN(C)C[C@@H]32)cc1 [Compound I-058] | 10 to 100 | 10 to 100 |  |  | 
CC(C)COc1ccc(CN(Cc2ccn(C)n2)C(=O)NCC2CN(C)C2)cc1 [Compound I-059] | 10 to 100 | 100 to 5000 |  |  | 
CC(C)COc1ccc(CN(Cc2cnn(C)c2)C(=O)NC2CCN(C)CC2)cc1 [Compound I-060] | 10 to 100 | 10 to 100 |  |  | 
CC(C)COc1ccc(CN(Cc2ccn(C)n2)C(=O)NC2CC3CC2CN3C)cc1 (stereo not shown) [Compound I-061] | < 10 | 10 to 100 |  |  | 
COCCN1CCC(NC(=O)N(Cc2ccc(OCC(C)C)cc2)Cc2ccn(C)n2)CC1 [Compound I-063] | 10 to 100 | 10 to 100 |  |  | 
CC(C)COc1ccc(CN(Cc2ccn(C)n2)C(=O)N[C@H]2CCN(C)C[C@@H]2C)cc1 [Compound I-064] | < 10 | < 10 |  |  | 
CC(C)COc1ccc(CN(Cc2ccn(C)n2)C(=O)N[C@@H]2CCN(C)C[C@H]2C)cc1 [Compound I-065] | < 10 | < 10 |  |  | 
CC(C)COc1ccc(CN(Cc2ccn(C)n2)C(=O)NC2(C)CCN(C)CC2)cc1 [Compound I-066] | 10 to 100 | 100 to 5000 |  |  | 
CC(C)COc1ccc(CN(Cc2ccn(C)n2)C(=O)NC23CCN(CC2)CC3)cc1 [Compound I-068] | 10 to 100 |  |  |  | 100 to 5000
CCN1CCC(NC(=O)N(Cc2ccc(OCC(C)C)cc2)Cc2ccn(C)n2)CC1 [Compound I-069] | < 10 | 10 to 100 |  |  | 
CC(C)COc1ccc(CN(Cc2ccn(C)n2)C(=O)N[C@H]2C[C@H]3CC[C@@H](C2)N3C)cc1 [Compound I-070] | 10 to 100 |  |  |  | 10 to 100
CC(C)COc1ccc(CN(Cc2ccn(C)n2)C(=O)NC2CCN(CC3CCC3)CC2)cc1 [Compound I-076] | < 10 | 10 to 100 |  |  | 
Cc1nc(CN(Cc2ccc(OCC(C)C)cc2)C(=O)N[C@H]2CCN(C)C[C@H]2F)co1 [Compound I-078] | < 10 | < 10 |  |  | 
CC(C)COc1ccc(CN(Cc2ccn(C)n2)C(=O)NC2CCNCC2)cc1 [Compound I-079] | < 10 | < 10 |  |  | 
Cc1nc(CN(Cc2ccc(OCC(C)C)cc2)C(=O)N[C@H]2CCNC[C@H]2F)co1 [Compound I-080] | < 10 | < 10 |  |  | 
Cc1ccc(CN(Cc2ccc(OCC(C)C)cc2)C(=O)OC2CCN(C)CC2)[nH]1 [Compound I-085] | < 10 | 10 to 100 |  |  | 
